The subject of assay [1] is reactive cysteine sites in HeLa cells expressing GFP or GFP-OTUB2. As to the kind of experiment: SLC-ABPP profiling of LN5P45-reactive cysteines with DBIA probe. The assay is classed as cell-based, Homo sapiens. Conditions: 10 μM for 4 h, 10,670 cysteine peptides detected. The protocol:
Reduced disulfide bonds were alkylated using 20 mM iodoacetamide for 30 min in the dark at RT.

In a further assay the target is T1, USP16 (Homo sapiens, UniProt Q9Y5T5).
T1 construct: USP16 FL (22-823); His-tag (N); made in house
Kind of assay: In vitro DUB selectivity panel, ubiquitin substrate cleavage assay. Conditions: marginal inhibition. The assay is classed as biochemical. The protocol: (§1) After having determined the (1S,2S) configuration as the preferred stereoisomer, we turned our attention to the aromatic ring substituents to further improve the compound potency. Applying the same chemo-enzymatic strategy described above, a panel of aryl substituted trans (1S,2S) cyclopropane compounds 7–10 were generated having a methyl (7–9) or fluorine (10) substituent at different positions on the aromatic ring. The compounds were tested for their OTUB2 inhibitory potency using the assay as described above (Table 1, Figure S1A). […] Since these compounds are all covalent, irreversible inhibitors,[15] the IC50 depends on the incubation time. To get a better estimate of their respective inhibitory capacity, independent of incubation time, we determined the kinact/KI values of compounds 5–10 by pre-mixing the compounds with the substrate before adding OTUB2. […] The in vitro selectivity of LN5P45 for OTUB2 was assessed using a panel containing six DUBs from the OTU family, including its closest family members OTUB1, OTUD1, OTUD2, OTUD3, OTUD6B, and Cezanne, and two DUBs from outside this family, UCHL1 and USP16 (Figure S2, Table S1).
(§2) The assays were performed in “nonbinding surface flat bottom low flange” black 384-well plates (Corning 3820) at room temperature in a buffer containing 50 mM Tris·HCl, 100 mM NaCl, pH 7.6, 2.0 mM cysteine, 1 mg/mL 3-[(3-cholamidopropyl)-dimethylammonio]propanesulfonic acid (CHAPS), and 0.5 mg/mL γ-globulins from bovine blood (BGG). All dispensing steps involving buffered solutions were performed on a Biotek MultiFlowFX dispenser. […] The compounds were dissolved in 10 mM and 1 mM DMSO stock solutions, and appropriate volumes were transferred to the empty plates using a Labcyte Echo acoustic dispenser to obtain a 12-point serial dilution. […] A 3 μL portion of the substrate (UbRhoMP, or K48-linked diUb FRET pair[35] for OTUB1) was added (final concentration 500 nM), and the increase in fluorescence over time was recorded using a BMG Labtech PHERAstar plate reader (excitation 487 nm, emission 535 nm).

Another assay concerns the target T2, OTUD3 (Homo sapiens, UniProt Q5T2D3).
T2 construct: OTUD3 FL (1-398) GST, cleaved Q5T2D3; GST (cleaved yes); purchased Ubiquigent DUBscan Kit 67-0006-001
T2 sequence (Q5T2D3 1-398): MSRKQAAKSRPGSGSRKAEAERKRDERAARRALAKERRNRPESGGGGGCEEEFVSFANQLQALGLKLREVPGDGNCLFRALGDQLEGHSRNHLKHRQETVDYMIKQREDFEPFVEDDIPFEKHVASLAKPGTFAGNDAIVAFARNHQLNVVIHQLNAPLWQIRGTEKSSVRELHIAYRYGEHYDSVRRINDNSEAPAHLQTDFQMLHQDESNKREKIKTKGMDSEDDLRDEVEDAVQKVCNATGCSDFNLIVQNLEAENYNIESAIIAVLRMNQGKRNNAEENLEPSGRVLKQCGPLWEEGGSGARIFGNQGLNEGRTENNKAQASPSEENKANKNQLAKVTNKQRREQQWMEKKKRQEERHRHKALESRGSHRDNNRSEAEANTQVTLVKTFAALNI
Described as above. The assay is classed as biochemical. The protocol:
as §1, §2

The target of a further assay is T3, UCHL1 (Homo sapiens, UniProt P09936).
T3 construct: UCHL1 FL (1-223); made in house
T3 sequence (P09936 1-223): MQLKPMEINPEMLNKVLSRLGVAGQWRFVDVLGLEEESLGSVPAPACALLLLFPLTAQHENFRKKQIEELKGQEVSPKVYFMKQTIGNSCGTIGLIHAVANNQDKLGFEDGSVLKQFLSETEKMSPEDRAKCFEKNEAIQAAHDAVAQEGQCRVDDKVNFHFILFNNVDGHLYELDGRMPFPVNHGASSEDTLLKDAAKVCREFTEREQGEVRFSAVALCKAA
Described as above. The conditions noted are these: marginal inhibition. Format: biochemical. The protocol: as §1, §2

For assay [2], the system named is OTUB1, OTUD1, OTUD2, OTUD3, OTUD6B, Cezanne, UCHL1 and USP16. As to the kind of experiment: In vitro DUB selectivity panel, ubiquitin substrate cleavage assay (whole panel). The assay is classed as biochemical, human. Conditions: at concentrations up to 150 μM. The protocol:
as §1, with “S1). […]” for “S1).”

Each structure is given as a SMILES string. Where only a bound is given, the exact number is not on record here.

T1 sequence (Q9Y5T5 22-823): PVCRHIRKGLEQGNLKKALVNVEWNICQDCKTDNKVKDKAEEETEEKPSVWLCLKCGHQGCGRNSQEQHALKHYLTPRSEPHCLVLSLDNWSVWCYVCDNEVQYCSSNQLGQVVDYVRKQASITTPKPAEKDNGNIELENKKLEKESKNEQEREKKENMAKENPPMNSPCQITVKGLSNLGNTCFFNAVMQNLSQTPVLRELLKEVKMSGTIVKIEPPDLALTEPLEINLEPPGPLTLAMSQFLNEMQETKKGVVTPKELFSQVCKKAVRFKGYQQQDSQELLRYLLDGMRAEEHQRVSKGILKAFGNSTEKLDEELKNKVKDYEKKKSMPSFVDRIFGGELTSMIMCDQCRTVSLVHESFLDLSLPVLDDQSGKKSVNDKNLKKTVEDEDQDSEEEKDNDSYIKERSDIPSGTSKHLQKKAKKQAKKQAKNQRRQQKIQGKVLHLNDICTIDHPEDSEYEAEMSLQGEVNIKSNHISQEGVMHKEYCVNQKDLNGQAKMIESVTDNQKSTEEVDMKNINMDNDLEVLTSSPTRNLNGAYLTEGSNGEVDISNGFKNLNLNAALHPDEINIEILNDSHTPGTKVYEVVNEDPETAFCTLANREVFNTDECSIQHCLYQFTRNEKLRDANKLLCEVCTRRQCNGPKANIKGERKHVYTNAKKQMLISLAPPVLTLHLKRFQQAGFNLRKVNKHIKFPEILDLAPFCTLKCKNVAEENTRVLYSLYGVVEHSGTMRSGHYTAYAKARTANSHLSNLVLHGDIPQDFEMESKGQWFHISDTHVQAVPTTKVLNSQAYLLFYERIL

For `Cc1cccc([C@H]2C[C@@H]2C(=O)NNC(=O)CCl)c1` [Compound 8], the “Number of proteins not involved in ubiquitination with inhibited DBIA probe binding” value in assay [1] is “seven”. Also, the IC50 – broadly, the concentration that gives 50% inhibition – against USP16 is above 100 µM; against OTUD3 it was 56 µM; against UCHL1, above 100 µM. In addition, the “Inhibition of most DUBs of the panel” value in assay [2] is reported as “not inhibited”.

The record behind these values is PMC10510154 (ACS Chemical Biology, 2023).
